Assay results reported in patent US6492407B2, “Pharmaceutical compositions containing triazolones and methods of treating neurodegenerative disease using triazolones” (Boehringer Imgelheim Pharma KG, priority 1998, dated 2002).
Where a name gives a salt, the structure may show the parent alone.

How the values were obtained:
AMPA receptor = experiment: Inhibition of the cainate-induced signal at the AMPA receptor, electrophysiology on neuronal cells (patch-clamp method); type: cell-based; details: test concentration of 100 μM
Protocol: The testing was carried out at a test concentration of 100 μM.

[1] = target: Na+ channel site 2 binding site; experiment: Affinity to the "Na+ channel site 2" binding site (method of G. B. Brown); details: testing typically at a test concentration of 10 μM

Structure (SMILES)	melting point	Ki [1]	AMPA Inh. [%] (inhibition of the cainate-induced signal at the AMPA receptor) (AMPA receptor)
Cc1cccc(-n2[nH]c(-c3ccccc3)nc2=O)c1 (as salt: HCl) [Example 46, 2-(3-methyl-phenyl)-5-phenyl-3H-1,2,4-triazol-3-one]	207 to 208 °C		
Cc1cccc(-n2nc(-c3ccccc3)n(CCN(C)C)c2=O)c1 (as salt: HCl) [Example 53, 4-(2-N,N-dimethyl-amino-ethyl)-2-(3-methyl-phenyl)-5-phenyl-3H-1,2,4-triazol-3-one]	204 to 206 °C		
Cc1ccccc1-n1[nH]c(-c2ccccc2)nc1=O [Example 1, 2-(2-methyl-phenyl)-5-phenyl-3H-1,2,4-triazol-3-one]	208 to 211 °C		58%
COc1ccc(-c2nn(-c3ccccc3)c(=O)n2C)cc1 [Example 22, 5-(4-methoxy-phenyl)-4-methyl-2-phenyl-3H-1,2,4-triazol-3-one]	118 °C		50%
COc1ccccc1-c1nn(-c2ccccc2)c(=O)n1C [Example 25, 5-(2-methoxy-phenyl)-4-methyl-2-phenyl-3H-1,2,4-triazol-3-one]	117 °C		72%
COc1ccccc1-n1[nH]c(-c2ccccc2)nc1=O [Example 32, 2-(2-methoxy-phenyl)-5-phenyl-3H-1,2,4-triazol-3-one]	275 to 277 °C		73%
O=c1nc(-c2ccccc2)[nH]n1-c1ccccc1Cl [Example 33, 2-(2-chloro-phenyl)-5-phenyl-3H-1,2,4-triazol-3-one]	257 °C		97%
O=c1nc(-c2ccccc2)[nH]n1-c1ccccc1F [Example 37, 2-(2-fluoro-phenyl)-5-phenyl-3H-1,2,4-triazol-3-one]	238 to 240 °C		86%
Cc1cccc(-n2[nH]c(-c3ccccc3)nc2=O)c1 [Example 46, 2-(3-methyl-phenyl)-5-phenyl-3H-1,2,4-triazol-3-one]			54%
CCc1ccccc1-n1[nH]c(-c2ccccc2)nc1=O [Example 48, 2-(2-ethyl-phenyl)-5-phenyl-3H-1,2,4-triazol-3-one]	209 to 210 °C		63%
Cc1cccc(-n2nc(-c3ccccc3)n(C)c2=O)c1 [Example 50, 4-methyl-2-(3-methyl-phenyl)-5-phenyl-3H-1,2,4-triazol-3-one]	91 to 92 °C		71%
Cc1cccc(-n2nc(-c3ccccc3)n(CCN(C)C)c2=O)c1 [Example 53, 4-(2-N,N-dimethyl-amino-ethyl)-2-(3-methyl-phenyl)-5-phenyl-3H-1,2,4-triazol-3-one]		5.78 µM	
Cn1c(-c2ccccc2)nn(-c2ccccc2Cl)c1=O [Example 55, 2-(2-chloro-phenyl)-4-methyl-5-phenyl-3H-1,2,4-triazol-3-one]	94 to 96 °C		80%
O=c1nc(-c2ccccc2)[nH]n1-c1ccccc1Br [Example 56, 2-(2-bromo-phenyl)-5-phenyl-3H-1,2,4-triazol-3-one]	246 to 264 °C		96%

The next lines start with results.

melting point	Ki [1]	Structure (SMILES)	AMPA Inh. [%] (inhibition of the cainate-induced signal at the AMPA receptor) (AMPA receptor)
204 to 207 °C		Cc1ccccc1-n1nc(-c2ccccc2)n(CCN(C)C)c1=O (as salt: HCl) [Example 27, 4-(2-N,N-dimethyl-aminoethyl)-2-(2-methyl-phenyl)-5-phenyl-3H-1,2,4-triazol-3-one]	
201 to 203 °C		CN(C)CCn1c(-c2ccccc2)nn(-c2cccc(F)c2)c1=O (as salt: HCl) [Example 49, 2-(3-fluorophenyl)-4-(2-N,N-dimethyl-aminoethyl)-5-phenyl-3H-1,2,4-triazol-3-one]	
81 to 83 °C		COc1cccc(-n2nc(-c3ccccc3)n(C)c2=O)c1 [Example 5, 2-(3-methoxy-phenyl)-4-methyl-5-phenyl-3H-1,2,4-triazol-3-one]	58%
80 to 82 °C		Cn1c(-c2ccccc2)nn(-c2ccccc2Br)c1=O [Example 8, 2-(2-bromo-phenyl)-4-methyl-5-phenyl-3H-1,2,4-triazol-3-one]	87%
	5.41 µM	Cc1ccccc1-n1nc(-c2ccccc2)n(CCN(C)C)c1=O [Example 27, 4-(2-N,N-dimethyl-aminoethyl)-2-(2-methyl-phenyl)-5-phenyl-3H-1,2,4-triazol-3-one]	64%
	2.08 µM	CN(C)CCn1c(-c2ccccc2)nn(-c2cccc(Cl)c2)c1=O [Example 35, 2-(3-chloro-phenyl)-4-(2-N,N-dimethylamino-ethyl)-5-phenyl-3H-1,2,4-triazol-3-one]	
81 °C		Cn1c(-c2ccccc2)nn(-c2cccc(F)c2)c1=O [Example 42, 2-(3-fluoro-phenyl)-4-methyl-5-phenyl-3H-1,2,4-triazol-3-one]	96%
65 to 66 °C		Cn1c(-c2ccccc2)nn(-c2ccccc2F)c1=O [Example 44, 2-(2-fluoro-phenyl)-4-methyl-5-phenyl-3H-1,2,4-triazol-3-one]	76%
	6.58 µM	CN(C)CCn1c(-c2ccccc2)nn(-c2cccc(F)c2)c1=O [Example 49, 2-(3-fluorophenyl)-4-(2-N,N-dimethyl-aminoethyl)-5-phenyl-3H-1,2,4-triazol-3-one]	
